From US7718715B2, “pH-modified latex comprising a synergistic combination of biocides” (S.C. Johnson & Son, Inc., priority 2004, dated 2010)

How the values were obtained:
Candida albicans #10231 = experiment: Challenge Test (Antimicrobial Effectiveness Test), yeast inoculum; type: cell-based; parameters: key to Challenge Test result: Yeast C. albicans: Fail: Recovery of surviving organisms at 14 days was a failing result for the challenge test; details: for Challenge Test result: Yeast C. albicans: stabilized acrylic latex A
Procedure: The following cultures were obtained from American Type Culture Collection (ATCC) at 10801 University Boulevard, Manassas, Va. 20110-2209: Escherichia coli #11229, Pseudomonas aeruginosa #15442, Candida albicans #10231, Aspergillus niger #6275.
The yeast inoculum was 0.10 ml of a 72-hr±4 hr culture of C. albicans in 25 grams of sample to give approximately 2×10^5 CFU/g. The C. albicans culture was grown in Potato Dextrose Broth (Difco Laboratories, Detroit, Mich.) at 28° C.
(§1) Each of the 25-g samples were inoculated or challenged with 0.10 ml of the bacterial inoculum, the yeast inoculum, and the mold inoculum respectively on day-0 and day-14. All samples were stored at ambient temperature. Each sample (10 microliter) was streaked on appropriate agar plates (bacteria on Tryptic Soy Agar (Difco Laboratories, Detroit, Mich.) plates with neutralizer and yeast/mold on Potato Dextrose Agar (Difco Laboratories, Detroit, Mich.) plates with neutralizer) on day-1, day-2, day-3, day-7, day-14, day-15, day-16, day-17, day-21, and day-28 to test for survivors. Streaked plates were incubated at appropriate temperature and time (48-hr at 35±2° C. for bacteria and 72-hr at 28±2° C. for yeast/mold). On day-14, each sample was re-inoculated with appropriate inoculum after streaking on agar plates. Plates were read after incubation time. Recovery of surviving organisms at 14 days was a failing result for the challenge test.
Biocides were always added after the reaction has been completed and after the batch has been cooled to <50° C. The desired temperature was dependent on the specific biocide. Many biocides become deactivated if exposed to high temperatures for an extended time. Each biocide was diluted with about 5× its weight with DI water and slowly added to the batch with good agitation. The dilution is to prevent the biocide from shocking the latex. The batch was mixed for a minimum of 20 minutes after the biocide was added to ensure good incorporation. If any temporary destabilization to the latex had occurred, it had time to recover prior to filtration.
The Challenge Test is a qualitative laboratory procedure used to differentiate poorly and marginally preserved products from well-preserved products. Products are intentionally inoculated with test organisms and then evaluated by use of streak plating technique to determine if microbial reduction has been attained.

Aspergillus niger #6275 = experiment: Challenge Test (Antimicrobial Effectiveness Test), mold inoculum; type: cell-based; details: stabilized acrylic latex A
Procedure: The following cultures were obtained from American Type Culture Collection (ATCC) at 10801 University Boulevard, Manassas, Va. 20110-2209: Escherichia coli #11229, Pseudomonas aeruginosa #15442, Candida albicans #10231, Aspergillus niger #6275. The mold inoculum was 0.10 ml of A. niger culture specimen in 25 grams of sample to give approximately 2×10^5 CFU/g. The culture specimen was obtained from 7-day-old A. niger culture grown on Sabouraud Dextrose Agar (Difco Laboratories, Detroit, Mich.) with 0.2% Triton X-100 in 0.85% saline. Each of the 25-g samples were inoculated or challenged with 0.10 ml of the bacterial inoculum, the yeast inoculum, and the mold inoculum respectively on day-0 and day-14. All samples were stored at ambient temperature. Each sample (10 microliter) was streaked on appropriate agar plates (bacteria on Tryptic Soy Agar (Difco Laboratories, Detroit, Mich.) plates with neutralizer and yeast/mold on Potato Dextrose Agar (Difco Laboratories, Detroit, Mich.) plates with neutralizer) on day-1, day-2, day-3, day-7, day-14, day-15, day-16, day-17, day-21, and day-28 to test for survivors. Streaked plates were incubated at appropriate temperature and time (48-hr at 35±2° C. for bacteria and 72-hr at 28±2° C. for yeast/mold). On day-14, each sample was re-inoculated with appropriate inoculum after streaking on agar plates. Plates were read after incubation time. Recovery of surviving organisms at 14 days was a failing result for the challenge test. Biocides were always added after the reaction has been completed and after the batch has been cooled to <50° C. The desired temperature was dependent on the specific biocide. Many biocides become deactivated if exposed to high temperatures for an extended time. Each biocide was diluted with about 5× its weight with DI water and slowly added to the batch with good agitation. The dilution is to prevent the biocide from shocking the latex. The batch was mixed for a minimum of 20 minutes after the biocide was added to ensure good incorporation. If any temporary destabilization to the latex had occurred, it had time to recover prior to filtration. The Challenge Test is a qualitative laboratory procedure used to differentiate poorly and marginally preserved products from well-preserved products. Products are intentionally inoculated with test organisms and then evaluated by use of streak plating technique to determine if microbial reduction has been attained.

[1] = test system: Escherichia coli #11229, Pseudomonas aeruginosa #15442; experiment: Challenge Test (Antimicrobial Effectiveness Test), bacterial inoculum (1:1 mixture); type: cell-based, E. coli & P. aeruginosa; details: stabilized acrylic latex A
Procedure: The following cultures were obtained from American Type Culture Collection (ATCC) at 10801 University Boulevard, Manassas, Va. 20110-2209: Escherichia coli #11229, Pseudomonas aeruginosa #15442, Candida albicans #10231, Aspergillus niger #6275. The bacterial inoculum was 0.10 ml of a 1:1 mixture of the 24-hr±4 hr culture of E. coli and P. aeruginosa in 25 grams of sample to give approximately 4×10^6 CFU/g. Both E. coli culture and the P. aeruginosa culture were grown in Nutrient Broth (Difco Laboratories, Detroit, Mich.) at 35° C. Each of the 25-g samples were inoculated or challenged with 0.10 ml of the bacterial inoculum, the yeast inoculum, and the mold inoculum respectively on day-0 and day-14. All samples were stored at ambient temperature. Each sample (10 microliter) was streaked on appropriate agar plates (bacteria on Tryptic Soy Agar (Difco Laboratories, Detroit, Mich.) plates with neutralizer and yeast/mold on Potato Dextrose Agar (Difco Laboratories, Detroit, Mich.) plates with neutralizer) on day-1, day-2, day-3, day-7, day-14, day-15, day-16, day-17, day-21, and day-28 to test for survivors. Streaked plates were incubated at appropriate temperature and time (48-hr at 35±2° C. for bacteria and 72-hr at 28±2° C. for yeast/mold). On day-14, each sample was re-inoculated with appropriate inoculum after streaking on agar plates. Plates were read after incubation time. Recovery of surviving organisms at 14 days was a failing result for the challenge test. Biocides were always added after the reaction has been completed and after the batch has been cooled to <50° C. The desired temperature was dependent on the specific biocide. Many biocides become deactivated if exposed to high temperatures for an extended time. Each biocide was diluted with about 5× its weight with DI water and slowly added to the batch with good agitation. The dilution is to prevent the biocide from shocking the latex. The batch was mixed for a minimum of 20 minutes after the biocide was added to ensure good incorporation. If any temporary destabilization to the latex had occurred, it had time to recover prior to filtration. The Challenge Test is a qualitative laboratory procedure used to differentiate poorly and marginally preserved products from well-preserved products. Products are intentionally inoculated with test organisms and then evaluated by use of streak plating technique to determine if microbial reduction has been attained.

C. albicans & A. niger = experiment: Challenge Test end point on yeast and mold and Synergy Index (Kull); type: cell-based; details: Dowicil 75 acting alone (QA); test stabilized acrylic latex A
Procedure: as §1, with “On day-14, each sample was re-inoculated with appropriate inoculum after streaking on agar plates.” left out, “Recovery of surviving organisms at 14 days was a failing result for the challenge test.” left out
Synergism was determined by the method described by F. C. […] Eisman, H. D. Sylwestrowicz, and R. L. Mayer in Applied Microbiology, Volume 9, pages 538-541, 1961 using the ratio determined by • Synergy Index (SI)=Qa/QA+Qb/QB=1 is additivity, <1 is synergism, and >1 is antagonism • where, • Qa=concentration of compound A, in the mixture, producing an end point • QA=concentration of compound A, acting alone, producing an end point • Qb=concentration of compound B, in the mixture, producing an end point • QB=concentration of compound B, acting alone, producing an end point

[2] = 0.20% Dowicil 75, 0.00% Bronopol, DN 12%, pH 6.3
[3] = 0.30% Dowicil 75, 0.00% Bronopol, DN 4%, pH 5.7
[4] = 0.40% Dowicil 75, 0.00% Bronopol, DN 4%, pH 5.75
[5] = 0.40% Dowicil 75, 0.00% Bronopol, DN 17%, pH 6.5

For `ClC=CC[N+]12CN3CN(CN(C3)C1)C2.[Cl-]` [Dowicil 75, 1-(3-chloroallyl)-3,5,7-triaza-1-azoniaadamantane chloride], the “Challenge Test result: Yeast C. albicans” value (Candida albicans #10231; [2]) was “Fail”, the “Challenge Test result: Yeast C. albicans” value (Candida albicans #10231; [3]) was “Pass” and the “killing of the yeast (C. albicans)” value (Candida albicans #10231; 0.4% DOWICIL 75, stabilized acrylic latex A with DN at 17%) was “failed to kill”. The “Challenge Test result: Yeast C. albicans” value (Candida albicans #10231; [4]) was “Pass”, the “Challenge Test result: Yeast C. albicans” value (Candida albicans #10231; [5]) was “Fail” and the “control of Candida albicans” value (Candida albicans #10231; maximum allowable level, test stabilized acrylic latex) was “failed to control”. The “Challenge Test result: Mold A. niger” value (Aspergillus niger #6275; [2]) was “Pass”, the “Challenge Test result: Mold A. niger” value (Aspergillus niger #6275; [3]) was “Pass” and the “Challenge Test result: Mold A. niger” value (Aspergillus niger #6275; [4]) was “Pass”. The “Challenge Test result: Mold A. niger” value (Aspergillus niger #6275; [5]) was “Pass”, the “Challenge Test result: Bacteria E. coli & P. aeruginosa” value [1, 2] was “Pass” and the “Challenge Test result: Bacteria E. coli & P. aeruginosa” value [1, 3] was “Pass”. For the same compound, the “Challenge Test result: Bacteria E. coli & P. aeruginosa” value [1, 4] was “Pass”, the “Challenge Test result: Bacteria E. coli & P. aeruginosa” value [1, 5] was “Pass” and the “Compound A end-point in %” value (C. albicans & A. niger) was over 0.4%.
